This data set concerns peripheral blood mononuclear cells (PBMCs). Nature of the data set: in vitro cytotoxicity in PBMC (MTT). In kind it is cell-based, human. The following applies: human PBMC, 24 h, MTT. How it is done: In vitro cytotoxicity was evaluated using peripheral blood mononuclear cells (PBMCs) collected from three healthy volunteers (2 males, mean age 33; and 1 person). PBMCs were separated by density gradient using Ficoll Paque PLUS (GE Healthcare, USA), pelleted by centrifugation (400× g for 40 min), and resuspended in RPMI 1640 medium, then supplemented with 10% fetal bovine serum and 1% antibiotic solution (penicillin 5000 Units/mL + streptomycin 5000 μg/mL). After 24 h of treatment, cell viability was evaluated by the modified colorimetric method based on the tetrazolium dye MTT (3-(4,5-dimethylthiazol-2-yl)-2,5- diphenyltetrazolium bromide). The MTT assay was used for in vitro cytotoxicity as previously described with the following modifications: cells were exposed to serially diluted concentrations of LQOFG-2, LQOFG-6, LQOFG-7 (1000 to 7.8 µM), and AmB (100 to 0.78 µM). The plates were kept at 37 °C for 24 h. MTT (5 mg/mL) was added and incubated for 4 h at 37 °C, after which the plates were centrifuged, the supernatant was discarded, and DMSO was added, leaving the plates under stirring to solubilize the formazan salts. Absorbance was measured at 540 nm using a plate reader (ELx800; Curitiba, PR, Brazil). The mean percentage of viable cells was calculated relative to the untreated control.

By CC50 is commonly meant the concentration at which the toxic effect on the cells reaches its halfway point. A higher CC50 goes with lower toxicity to the cells. On to `C[C@@H]1[C@H](O)[C@@H](C)/C=C/C=C/C=C/C=C/C=C/C=C/C=C/[C@H](O[C@@H]2O[C@H](C)[C@@H](O)[C@H](N)[C@@H]2O)C[C@@H]2O[C@](O)(C[C@@H](O)C[C@@H](O)[C@H](O)CC[C@@H](O)C[C@@H](O)CC(=O)O[C@H]1C)C[C@H](O)[C@H]2C(=O)O` [Amphotericin B, reference compound], for which it took 53.8 ± 3.59 µM to reach half-maximal cytotoxicity (CC50).

(Values after publication PMC10051705, “Leishmanicidal Activity of Guanidine Derivatives against Leishmania infantum” (Tropical Medicine and Infectious Disease, 2023).)
